# Assay results: patent EP4186500A1, “MEK INHIBITORS FOR THE PREVENTION AND TREATMENT OF LONG COVID SYNDROME” (Atriva Therapeutics GmbH, priority 2021, dated 2023)
# Like-named read-outs stand apart in the source and are kept apart here.
# Assays:
# pERK1/2 = test: Wes analysis of ERK phosphorylation in SARS-CoV-2 infected Caco-2 cells; assay type: cell-based, Homo sapiens; details: CaCo-2 cells infected SARS-CoV-2 (MOI 0.1); 50 and 100 µM ATR-002; 24h
# Method: For the Virus yield reduction assay a 24-well plate (Greiner Bio-One, Cat. 662-160) with 95% confluent Caco-2 cells was prepared. The wells were washed once with Caco-2 infection medium DMEM (Gibco, Cat. 41965-039) supplemented with 5% FCS (Capricorn, Cat. FBS-12A), 1% Penicillin/Streptomycin, (Sigma Aldrich, Cat. P4333) and 1% Non-essential amino acids (NEAA) (Merck, Cat. K 0293). Cells were infected with SARS-CoV-2 (MOI 0.1) for 1h in 200µL Caco-2 infection medium per well. Afterwards the Virus inoculum was removed completely and cells were treated with 1mL per well with different concentrations of ATR-002 (100µM, 50µM, 25µM, 12.5µM, 6.25µM, 3.125µM, 1.56µM, 0.78µM, 0.39µM, 0.195µM, 0.098µM, 0µM) in Caco-2 infection medium with 1% DMSO for 24h at 37°C, 5% CO2. […]
# Wes™ capillary electrophoresis by ProteinSimple® was used to identify and quantify pERK1/2, ERK1/2 and SARS-CoV-2 Nucleoprotein. Cell lysates were diluted with 0.1X Sample Buffer (ProteinSimple, Abingdon, Oxford, UK) to approximately 50ng total protein per lane and analyzed using specific antibodies. […] The anti-rabbit secondary antibody (ProteinSimple, Cat. DM-001) and anti-mouse secondary antibody (ProteinSimple, Cat. DM-002) and all other reagents for WES analysis were also purchased from ProteinSimple and were ready to use.
# SARS-CoV-2 [1] = assay type: cell-based, Severe acute respiratory syndrome coronavirus; details: CaCo-2 cells, MOI 0.1; 50 and 100 µM ATR-002; 24h
# SARS-CoV-2 strain FI = assay type: cell-based, Severe acute respiratory syndrome coronavirus; details: Vero cells, MOI 0.01; 50 µM ATR-002; 24h, 36h and 48h
# [2] = tested on: SARS-CoV-2 viral gene RdRP; assay type: cell-based, Severe acute respiratory syndrome coronavirus; details: Vero cells, MOI 0.01; 50 µM ATR-002; 24, 36 and 48 hpi
# SARS-CoV-2 [3] = assay type: cell-based, Severe acute respiratory syndrome coronavirus; details: Caco-2, Vero E6 and Calu-3 cells; 100 µM, 75 µM, 50 µM; 24 hours
# SARS-CoV-2 (FI) [4] = assay type: cell-based, Severe acute respiratory syndrome coronavirus
# Calu-3 cells = test: Cytotoxicity evaluation in Calu-3 cells; assay type: cell-based, Homo sapiens; details: 72 h treatment
# Method: In a next step, Calu-3 cells were incubated with increasing amounts of ATR-002 over 24, 48 or 72 hours. Specifically, Calu-3 cells were infected with SARS-CoV-2 (FI) using a MOI of 0.01. 1 h.p.i. cells were treated with ATR-002. Mock, SARS-CoV-2 and DMSO served as controls. […] Untreated (SARS-CoV-2) and DMSO (0.1 %) treated cells served as negative controls. Data represents means ± SD of three independent experiments, each performed in triplicates. Data passed a one-way ANOVA followed by Dunnett's multiple comparison test (^∗∗ p≤0.0021; ^∗∗∗ p≤0,0002; ^∗∗∗∗ p≤0.0001) for each time point separately. DMSO was used as reference. […] Data in combination with (C) was used to calculate the CC50 value and the selectivity index (SI). […] Data represent means ± SD of three independent experiments.
# [5] = tested on: cytokine & chemokine gene expression; test: Acute lung injury (ALI) mouse model, LPS induced cytokine and chemokine gene expression; assay type: in vivo; details: 5mg/kg LPS i.p.; 25 mg/kg ATR-002 i.p. one hour post stimulation; 6h post treatment
# MCP-1 = MCP-1 expression in SARS-CoV-2 infected CaCo2 cells; assay type: cell-based, Homo sapiens; details: high amount of ATR-002 necessary
# [6] = tested on: IL-6, IL-8, MCP-1, IP-10 and CCL5 mRNA; test: Pro-inflammatory cytokine mRNA expression in SARS-CoV-2 infected Calu-3 cells (real-time PCR); assay type: cell-based, Homo sapiens; details: SARS-CoV-2 (FI) MOI 0.01, increasing amounts of ATR-002
# MxA and IL8 mRNA = MxA and IL8 mRNA expression in poly (I:C) transfected A549 cells; assay type: cell-based, Homo sapiens; details: 100 ng/ml poly (I:C), 24 hours
# SARS-CoV-2 (FI) [7] = assay type: cell-based, Severe acute respiratory syndrome coronavirus; details: primary human ALI cultures, MOI 1.0; 50 µM and 100 µM; three cultures
# ACE2 = ACE2 expression in Calu-3 cells (immunofluorescence microscopy and WES); assay type: cell-based, Homo sapiens; details: 100µM ATR-002, 24h
# Method: Then the wells were washed once with PBS and fixed with 300µL/well 4% PFA in PBS for 10 minutes at room temperature. After another wash step with PBS, the cells were blocked for 1 hour with 1% BSA in PBS at room temperature before incubation with 200µL/well of the primary antibody (Goat-Anti-ACE2 antibody (R&D systems; Cat.: AF933; Lot.:HOK0320061) (1:20) in 1% BSA in PBS for 1h at room temperature on a shaker (100 rpm). Afterwards, the cells were washed three times with PBS before incubation with 200µL/well of the secondary antibody Donkey anti-Goat IgG (H+L) Highly Cross-Absorbed Secondary Antibody, Alexa Fluor Plus 647 (Invitrogen; Ref.: A32849TR; Lot.:VE306231) (1:200) in 1% BSA in PBS for 45 minutes at room temperature on a shaker. After another three wash steps with PBS, 200µL Rhodamine Phalloidin (Invitrogen; Ref.: R415; Lot.: 2157163) (1:40 in 1% BSA in PBS) were added to each well and incubated for 30 minutes at room temperature on a shaker. After two final wash steps with PBS, the cover slips were removed from the wells and mounted on microscope slides with Roti®-Mount FluorCare DAPI (Roth; Art.-Nr.: HP20.1; Lot.: 080293945). The slides were let dry at 4°C in the dark and then analysed using a confocal laser scanning microscope (LSM800, Zeiss).
# VSV ΔG/GFP-Luc+SΔ21 = assay type: cell-based
# [8] = human, in vivo
# SARS-CoV-2 [9] = test: SARS-CoV-2 Syrian hamster infection model; details: for reduction of progeny virus in throat swabs (TCID50 assay): 100mg/kg loading dose then 75mg/kg daily, oral; for reduction of progeny virus in throat swabs (TCID50 assay) / reduction of viral load in throat swabs (PCR): day 3 p.i.
# [10] = tested on: IP10, TNF-alpha and MCP-1; test: Cytokine/chemokine expression in LPS induced PBMC
# [11] = tested on: Human T-cell Inflammation; test: T-cell inflammation inhibition assay (Anti-CD3 stimulation) in PBMC; details: 100, 50, and 25 µM, 24 hours, PBMC from three human donors
# [12] = tested on: Human T-cell Inflammation; test: T-cell inflammation inhibition assay (ConA and PHA stimulation) in PBMC; details: 100, 50, and 25 µM, 24 hours, PBMC from three human donors
# memory T cells = test: 12-day T cell clonal expansion with IFN-γ FluoroSpot (memory T cell reactivation)
# [13] = LPS induced PMBC cells, 10µg/ml ATR-002
smiles,measurement,setting,value
"O=C(O)c1ccc(F)c(F)c1Nc1ccc(I)cc1Cl [ATR-002, 2-(2-chloro-4-iodophenylamino)-N-3,4-difluoro benzoic acid]",ERK-phosphorylation,pERK1/2,inhibition
same,SARS-CoV-2 virus titer,SARS-CoV-2 [1],inhibition
same,nucleocapsid protein,SARS-CoV-2 [1],inhibition
same,viral load (virus titer by plaque assay),SARS-CoV-2 strain FI,lower viral load than control cells
same,SARS-CoV-2 viral gene RdRP genome copy number,[2],confirmed
same,virus titer via RT-qPCR (N gene),SARS-CoV-2 [3],the effect seen on all cell types was comparable
same,cell damage of infected cells (light microscopy),"SARS-CoV-2 (FI) [4]; Calu-3 cells infected with SARS-CoV-2, Figure 6 D",did not show the characteristic cell damage
same,production of progeny viral particles,"SARS-CoV-2 (FI) [4]; Calu-3 cells, MOI 0.01, ATR-002 10 - 150 µM, 24, 48 or 72 hours",concentration dependent decrease in the production of progeny viral particles
same,Cytotoxicity,Calu-3 cells,non-toxic concentration range
same,IL-1beta gene expression in lung,[5],decrease
same,IL-8 gene expression in lung,[5],decrease
same,IP-10 gene expression in lung,[5],decrease
same,MCP-1 gene expression in lung,[5],decrease
same,MIP-1beta gene expression in lung,[5],decrease
same,TNF-alpha gene expression in lung,[5],decrease
same,MCP-1 expression,MCP-1,able to reduce MCP-1 expression
same,"expression of pro-inflammatory cytokines (IL-6, IL-8, MCP-1, IP-10 and CCL5 mRNA)",[6],reduce the expression of pro-inflammatory cytokines
same,MxA mRNA expression (anti-viral interferon system),MxA and IL8 mRNA,did not affect the stimulation of the anti-viral interferon system
same,expression of pro-inflammatory IL8,MxA and IL8 mRNA; even with low concentrations,strong reduction
same,production of progeny viral particles,SARS-CoV-2 (FI) [7],completely blocked the production of progeny viral particles
same,ACE2 expression,ACE2,reduction of ACE2
same,internalization of the VSV pseudotype virus (GFP-positive cells),VSV ΔG/GFP-Luc+SΔ21,reduction in the internalization of the VSV pseudotype virus
same,blood levels (pharmacokinetics exposure),[8],confirm the maintenance of clinically relevant blood levels
same,safety and tolerability,[8],safe and well tolerable
same,safety of each dose cohort (Safety Review Committee),[8],considered to be safe
same,serious adverse events,[8],no serious adverse events
same,"tolerability, weight loss, adverse effects",SARS-CoV-2 [9]; both treatment groups compared to vehicle group,well tolerated without significant weight loss
same,"alveolar haemorrhage, oedema and type II pneumocyte hyperplasia","SARS-CoV-2 [9]; histopathology 4 days post infection, treated at days 1, 2, and 3 post infection","no haemorrhage, oedema and type II pneumocyte hyperplasia"
same,score in alveolitis,"SARS-CoV-2 [9]; histopathology 4 days post infection, treated at days 1, 2, and 3 post infection, vehicle score 3",1
same,reduction of progeny virus in throat swabs (TCID50 assay),SARS-CoV-2 [9]; treated 4 hours p.i.,1.1 log10
same,reduction of viral load in throat swabs (PCR),SARS-CoV-2 [9]; treated 4 hours p.i.,1.1 log10
same,reduction of progeny virus in throat swabs (TCID50 assay),SARS-CoV-2 [9]; treated 24 hours p.i.,1.3 log10
same,reduction of viral load in throat swabs (PCR),SARS-CoV-2 [9]; treated 24 hours p.i.,1.2 log10
same,percentage of affected lung area,"SARS-CoV-2 [9]; treatment 4 hours p.i., day 4 p.i., P=0.0282",significantly reduced affected lung tissue
same,percentage of affected lung area,"SARS-CoV-2 [9]; treatment 24 hours p.i., day 4 p.i., P=0.0314",significantly reduced affected lung tissue
same,reduction in infectious virus titers (TCID50/g tissue) in the nasal turbinates,"SARS-CoV-2 [9]; treatment start 4 hours p.i., day 4 p.i.",1.3 log10
same,reduction of viral load in the nasal turbinates (PCR),"SARS-CoV-2 [9]; treatment started 4 hours p.i., day 4 p.i.",1.1 log10
same,infectious virus titers in the nasal turbinates,"SARS-CoV-2 [9]; treatment started 24 hours p.i., day 4 p.i.","not the treatment started 24 hours p.i., significantly reduced infectious virus titers"
same,inhibition at 10 µg/mL,"[10]; Homo sapiens, PBMC, read-out: inhibition of LPS induced MCP-1",> 90%
same,IP10 expression,[10]; [13],reduced
same,MCP-1 expression,[10]; [13],reduced
same,TNF-alpha expression,[10]; [13],reduced
same,inhibition of cytokine/chemokine stimulation,[11],"significant, dose dependent inhibition"
same,inhibition of cytokine/chemokine stimulation,[12]; ConA stimulation,"significant, dose dependent inhibition"
same,inhibition of cytokine/chemokine stimulation,[12]; PHA stimulation,"significant, dose dependent inhibition"
same,"Spot counts, representing the number of activated T cells","memory T cells; CEF peptide stimulated PBMCs, three donors, 5 or 10 pg/mL on three different time points, 12 days",not reduced
same,cell proliferation/density by microscope,memory T cells; in vitro culture of PBMC,no visible effect on cell proliferation/density
"O=C(NOCC1CC1)c1ccc(F)c(F)c1Nc1ccc(I)cc1Cl [CI-1040, reference compound]",internalization of the VSV pseudotype virus (GFP-positive cells),VSV ΔG/GFP-Luc+SΔ21,reduction in the internalization of the VSV pseudotype virus
